{"source": "ChEMBL document CHEMBL4334435", "about": "“A focused structure-activity relationship study of psoralen-based immunoproteasome inhibitors” (Medchemcomm, 2019)", "key": {"PBMC [1]": {"test_system": "PBMC", "assay": "Inhibition of LPS-induced IL-1beta production in human PBMC at 50 nM preincubated for 1 hr followed by LPS addition and measured after 24 hrs by cytometric bead array-based FACS analysis", "assay_type": "functional, cell-based"}, "PBMC [2]": {"test_system": "PBMC", "assay": "Inhibition of LPS-induced IL-8 production in human PBMC at 50 nM preincubated for 1 hr followed by LPS addition and measured after 24 hrs by cytometric bead array-based FACS analysis", "assay_type": "functional, cell-based"}, "PBMC [3]": {"test_system": "PBMC", "assay": "Inhibition of LPS-induced IL-6 secretion in human PBMC at 50 nM preincubated for 1 hr followed by LPS addition and measured after 24 hrs by cytometric bead array-based FACS analysis", "assay_type": "functional, cell-based"}, "PBMC [4]": {"test_system": "PBMC", "assay": "Inhibition of LPS-induced TNFalpha production in human PBMC at 50 nM preincubated for 1 hr followed by LPS addition and measured after 24 hrs by cytometric bead array-based FACS analysis", "assay_type": "functional, cell-based"}, "PBMC [5]": {"test_system": "PBMC", "assay": "Inhibition of LPS-induced IL-10 secretion in human PBMC at 50 nM preincubated for 1 hr followed by LPS addition and measured after 24 hrs by cytometric bead array-based FACS analysis", "assay_type": "functional, cell-based"}, "[6]": {"molecular_target": "T1, Proteasome subunit beta type-8 (Homo sapiens) (UniProt P28062)", "T1 sequence (whole entry)": "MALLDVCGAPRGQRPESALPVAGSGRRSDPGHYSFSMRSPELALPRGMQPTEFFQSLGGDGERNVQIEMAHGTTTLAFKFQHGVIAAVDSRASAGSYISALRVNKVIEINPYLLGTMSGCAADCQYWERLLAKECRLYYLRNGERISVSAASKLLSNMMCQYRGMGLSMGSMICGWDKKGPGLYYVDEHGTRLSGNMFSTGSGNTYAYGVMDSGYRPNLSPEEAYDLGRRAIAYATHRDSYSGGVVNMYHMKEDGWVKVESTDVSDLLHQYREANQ", "assay": "Reversible inhibition of human immunoproteasome beta 5i subunit assessed as recovery of enzyme activity at 45 nM using Suc-LLVY-AMC as substrate preincubated for 30 mins followed by 100-fold diluted substrate addition by rapid dilution assay relative to control", "design": "scale not given: the % may be the effect or the level left"}, "PBMC [7]": {"test_system": "PBMC", "assay": "Inhibition of LPS-induced IL-12p70 production in human PBMC at 50 nM preincubated for 1 hr followed by LPS addition and measured after 24 hrs by cytometric bead array-based FACS analysis", "assay_type": "functional, cell-based"}}, "note": "The source made the active and inactive calls. No cut-off for these calls is given here.", "data": [{"smiles": "CC(C)(C)ONC(=O)C[C@H](NC(=O)CCc1ccccc1)C(=O)N[C@@H](Cc1ccc(F)cc1)C(=O)NCc1cccc2ccccc12", "values": [{"measurement": "inhibition", "setting": "PBMC [1]", "value": "inactive"}, {"measurement": "inhibition", "setting": "PBMC [2]", "value": "inactive"}, {"measurement": "inhibition", "setting": "PBMC [3]", "value": "Active"}, {"measurement": "inhibition", "setting": "PBMC [4]", "value": "inactive"}, {"measurement": "inhibition", "setting": "PBMC [5]", "value": "Active"}, {"measurement": "Activity", "setting": "[6]", "value": 100, "unit": "%"}, {"measurement": "inhibition", "setting": "PBMC [7]", "value": "inactive"}]}]}
